Measurements published in the supplement of paper PMC11208160.

Experiment: recombinant barcode read abundance after kanamycin selection (control-corrected) (log10(CPM+1)); higher = more efficient recombination; sequences stand for … in AGTGCAGAGAAAATCGGCCAGTTTTCTCTGCCTGCAGTCCGCATGCCGT…AGATTTATGCAGCGGACTGCCTTTCTCCCAAAGTGATAAACCGGACAGTATCATGGACCGGTTTTCCCGGTAATCCGTATTTGCAAGGTTGGTTTCACT; site = the 11-nt target
Procedure, shortened: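 In E. coli, a pooled library matched targets to IS621 bridge RNA target-binding loops and was introduced alongside a donor plasmid. Cells went onto chloramphenicol/ampicillin/kanamycin with 0.1 mM IPTG or onto chloramphenicol/ampicillin LB agar as control, in duplicate. Recombination efficiency, from recombinant-junction barcodes as counts per million, is averaged and control-corrected. It is reported as log10(CPM+1).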
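Note: IS621 recombinase and bridge RNA in Escherichia coli cells.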

| Sequence | recombinant barcode read abundance (log10) |
| --- | --- |
| TACATTCCTTGGGTTCTAACCTGTTGCCT (site CACATTCCTAG) | 0.0666 |
| TACATTCCTTGGGTTCTAACCTGTTGCCT (site GACATTCCTAG) | 0.179 |
| TACATTCCTTGGGTTCTAACCTGTTGCCT (site TACATTCCTAG) | 0.156 |
| TACCCTACTTGGGTTCTAACCTGTTGCCT (site AACCCTACTAG) | 0.0271 |
| TACCCTACTTGGGTTCTAACCTGTTGCCT (site CACCCTACTAG) | 0.0188 |
| TACCCTACTTGGGTTCTAACCTGTTGCCT (site GACCCTACTAG) | 0.0371 |
| TACCCTACTTGGGTTCTAACCTGTTGCCT (site TACCCTACTAG) | 0.628 |
| TACCGGCCTTGGGTTCTAACCTGTTGCCT (site TAACGGCCTAG) | 0.288 |
| TACCGGCCTTGGGTTCTAACCTGTTGCCT (site TACCGGCCTAG) | 0.141 |
| TACCGGCCTTGGGTTCTAACCTGTTGCCT (site TAGCGGCCTAG) | 0.176 |
| TACCGGCCTTGGGTTCTAACCTGTTGCCT (site TATCGGCCTAG) | 0.166 |
| TACCTAGCTTGGGTTCTAACCTGTTGCGT (site TACCTAGCTAC) | 1.3 |
| TACCTAGCTTGGGTTCTAACCTGTTGCGT (site TACCTATCTAC) | 0.433 |
| TACCTATCTTGGGTTCTAACCTGTTGCCT (site TACCTATCTAG) | 1.11 |
| TACCTATCTTGGGTTCTAACCTGTTGCCT (site TCCCTATCTAG) | 0.00692 |
| TACCTATCTTGGGTTCTAACCTGTTGCCT (site TGCCTATCTAG) | 0.0136 |
| TACCTATCTTGGGTTCTAACCTGTTGCCT (site TTCCTATCTAG) | 0.429 |
| TACCTGACTTGGGTTCTAACCTGTTGCCT (site TACCAGACTAG) | 0.0067 |
| TACCTGACTTGGGTTCTAACCTGTTGCCT (site TACCCGACTAG) | 0.355 |
| TACCTGACTTGGGTTCTAACCTGTTGCCT (site TACCGGACTAG) | 0.106 |
| TACCTGACTTGGGTTCTAACCTGTTGCCT (site TACCTGACTAG) | 0.688 |
| TACGCCTCTTGGGTTCTAACCTGTTGCCT (site AACGCCTCTAG) | 0.0117 |
| TACGCCTCTTGGGTTCTAACCTGTTGCCT (site CACGCCTCTAG) | 0.164 |
| TACGCCTCTTGGGTTCTAACCTGTTGCCT (site GACGCCTCTAG) | 0.249 |
| TACGCCTCTTGGGTTCTAACCTGTTGCCT (site TACGCCTCTAG) | 1.29 |
| TACGTGTCTTGGGTTCTAACCTGTTGCCT (site TAAGTGTCTAG) | 0.408 |

| Sequence | recombinant barcode read abundance (log10) |
| --- | --- |
| TACGTGTCTTGGGTTCTAACCTGTTGCCT (site TACGTGTCTAG) | 2.4 |
| TACGTGTCTTGGGTTCTAACCTGTTGCCT (site TAGGTGTCTAG) | 0.0617 |
| TACGTGTCTTGGGTTCTAACCTGTTGCCT (site TATGTGTCTAG) | 0.103 |
| TACTAAGCTTGGGTTCTAACCTGTTGCCT (site TACTAAGCTAA) | 0 |
| TACTAAGCTTGGGTTCTAACCTGTTGCCT (site TACTAAGCTAC) | 0.098 |
| TACTAAGCTTGGGTTCTAACCTGTTGCCT (site TACTAAGCTAG) | 0.495 |
| TACTAAGCTTGGGTTCTAACCTGTTGCCT (site TACTAAGCTAT) | 0.171 |
| TACTATGCTTGGGTTCTAACCTGTTGCGA (site TACTATGCTTC) | 0.41 |
| TACTATGCTTGGGTTCTAACCTGTTGCGA (site TCCTATTCTTC) | 0 |
| TACTATTCTTGGGTTCTAACCTGTTGCCT (site TACTATACTAG) | 0.0693 |
| TACTATTCTTGGGTTCTAACCTGTTGCCT (site TACTATCCTAG) | 0.0345 |
| TACTATTCTTGGGTTCTAACCTGTTGCCT (site TACTATGCTAG) | 0.175 |
| TACTATTCTTGGGTTCTAACCTGTTGCCT (site TACTATTCTAG) | 0.263 |
| TACTGCTCTTGGGTTCTAACCTGTTGCTT (site TACAGCTCTAA) | 0.0305 |
| TACTGCTCTTGGGTTCTAACCTGTTGCTT (site TACCGCTCTAA) | 0.213 |
| TACTGCTCTTGGGTTCTAACCTGTTGCTT (site TACGGCTCTAA) | 0.0516 |
| TACTGCTCTTGGGTTCTAACCTGTTGCTT (site TACTGCTCTAA) | 0.296 |
| TACTTAACTTGGGTTCTAACCTGTTGCCT (site TACTAAACTAG) | 0.119 |
| TACTTAACTTGGGTTCTAACCTGTTGCCT (site TACTCAACTAG) | 0.00663 |
| TACTTAACTTGGGTTCTAACCTGTTGCCT (site TACTGAACTAG) | 0.0656 |
| TACTTAACTTGGGTTCTAACCTGTTGCCT (site TACTTAACTAG) | 0.134 |
| TACTTCCCTTGGGTTCTAACCTGTTGCGT (site TACTTCCCTAC) | 1.87 |
| TACTTCCCTTGGGTTCTAACCTGTTGCGT (site TACTTCTCTAG) | 0.0128 |
| TACTTCTCTTGGGTTCTAACCTGTTGCCT (site TACTTCCCTAC) | 0.211 |
| TACTTCTCTTGGGTTCTAACCTGTTGCCT (site TACTTCTCTAG) | 0.764 |
| TACTTGCCTTGGGTTCTAACCTGTTGCCT (site TAATTGCCTAG) | 0.0842 |

| Sequence | recombinant barcode read abundance (log10) |
| --- | --- |
| TACTTGCCTTGGGTTCTAACCTGTTGCCT (site TACTTGCCTAG) | 0.804 |
| TACTTGCCTTGGGTTCTAACCTGTTGCCT (site TAGTTGCCTAG) | 0.653 |
| TACTTGCCTTGGGTTCTAACCTGTTGCCT (site TATTTGCCTAG) | 0.182 |
| TAGAACTCTTGGGTTCTAACCTGTTGCCA (site TAGAACTCTAG) | 0.254 |
| TAGAACTCTTGGGTTCTAACCTGTTGCCA (site TAGAACTCTCG) | 0.23 |
| TAGAACTCTTGGGTTCTAACCTGTTGCCA (site TAGAACTCTGG) | 0.0926 |
| TAGAACTCTTGGGTTCTAACCTGTTGCCA (site TAGAACTCTTG) | 0.193 |
| TAGAAGACTTGGGTTCTAACCTGTTGCTA (site TAGAAGACTAA) | 0.115 |
| TAGAAGACTTGGGTTCTAACCTGTTGCTA (site TAGAAGACTCA) | 0.487 |
| TAGAAGACTTGGGTTCTAACCTGTTGCTA (site TAGAAGACTGA) | 0.155 |
| TAGAAGACTTGGGTTCTAACCTGTTGCTA (site TAGAAGACTTA) | 1.55 |
| TAGAAGACTTGGGTTCTAACCTGTTGCTG (site TAGAAGACTAA) | 0.128 |
| TAGAAGACTTGGGTTCTAACCTGTTGCTG (site TAGAAGACTCA) | 2.38 |
| TAGAAGACTTGGGTTCTAACCTGTTGCTG (site TAGAAGACTGA) | 0.315 |
| TAGAAGACTTGGGTTCTAACCTGTTGCTG (site TAGAAGACTTA) | 0.639 |
| TAGAAGCCTTGGGTTCTAACCTGTTGCTA (site TAGAAGCCTTA) | 0.463 |
| TAGAAGCCTTGGGTTCTAACCTGTTGCTA (site TAGAAGGCTTA) | 0.21 |
| TAGAAGGCTTGGGTTCTAACCTGTTGCAT (site TAGAAGGCTAA) | 0.162 |
| TAGAAGGCTTGGGTTCTAACCTGTTGCAT (site TAGAAGGCTAC) | 0.0752 |
| TAGAAGGCTTGGGTTCTAACCTGTTGCAT (site TAGAAGGCTAG) | 0.161 |
| TAGAAGGCTTGGGTTCTAACCTGTTGCAT (site TAGAAGGCTAT) | 1.97 |
| TAGAATCCTTGGGTTCTAACCTGTTGCAT (site TAGAATCCTAT) | 0.104 |
| TAGAATCCTTGGGTTCTAACCTGTTGCAT (site TAGAATCCTCT) | 0.102 |
| TAGAATCCTTGGGTTCTAACCTGTTGCAT (site TAGAATCCTGT) | 0.0579 |
| TAGAATCCTTGGGTTCTAACCTGTTGCAT (site TAGAATCCTTT) | 0.241 |
